From patent US4407818A, “Anti viral, anti bacterial and/or anti fungal composition containing metal oxyalkylate” (Bio-Systems Research, Inc., priority 1981, dated 1983)
Values joined by “and” are separate entries in the source; they are usually repeats but may differ in a detail not shown here. Equal entries are not always repeated. “Also recorded” adds a separate entry of the source.

Experiments:
Echo 5 = assay: CPE trial on Echo 5 (Examples 12-14); assay type: cell-based; conditions: in words
HSV-2 [1] = assay: Plaque assay, HSV-2 (Examples 5-7); assay type: cell-based, Herpes simplex virus type II
Polio 1 = assay type: cell-based; conditions: in words; CPE trial
Adenovirus type 4 = assay: CPE trial on Adenovirus type 4 using KB cells (Example 17); assay type: cell-based
HSV-2 [2] = assay: CPE trial on HSV-2 (Examples 15-16); assay type: cell-based, Herpes simplex virus type II
HSV-1 [3] = assay: Plaque assay, HSV-1 (Examples 8-11); assay type: cell-based, Herpes simplex virus type I
HSV-1 [4] = assay: CPE trial on HSV-1 (Examples 15-16); assay type: cell-based, Herpes simplex virus type I; conditions: in words
Staphylococcus aureus [5] = assay: Filter paper disc bacterial inhibition test on agar plates (Example 1); assay type: cell-based; conditions: .01% solution (as headed); for Clear Area, Average: average of plates 1-4; for Clear Area: single plate, overnight at 37° C., -- counted as zero in the average
Bread mold = assay: Disc growth inhibition of bread mold on nutrient plate (Example 2); assay type: cell-based
Experimental: (§1) A stock (1%) solution is prepared by dissolving 0.1 gm of zinc ocyacetate in 10 ml of water. A 1/2 dilution (0.5% solution) is made by admixing 5 ml of the stock solution and 5 ml of water. A 1/4 dilution (0.25% solution) is made by admixing 5 ml of the 0.5% solution and 5 ml of water. A 1/10 dilution (0.1% solution) is made by admixing 1 ml of the stock (1%) solution and 9 ml of water. Fine filter paper discs of 1 cm diameter are placed in each of four clean petri dishes. In dish #1, 0.1 ml of the 1% solution is dropped onto each filter disc and allowed to air dry. The same is done in dish #2 except that the 0.5% solution is used. The same is done on dishes #3 and #4 except that the 0.25 and 0.1% solutions, respectively,are used. One ml of a previously prepared 1×10^-4 dilution of a broth bacterial culture (Staphylococcus aureus) is then spread evenly over the entire surface of four agar plates. At the 12 o'clock position on each of the agar plates, a disc from dish #1 (1% solution) is placed. Discs from dishes #2, #3 and #4 are similarly placed at the 3 o'clock, 6 o'clock, and 9 o'clock positions, respectively, of each of the four plates. Each disc is gently pressed to enure good contact with the agar surface. For comparison purposes, a further stock solution of zinc sulphate (1%) is made up and an identical series of tests made. Each plate is incubated overnight at 37° C. and the area of inhibition--the clear area around each disc--is measured. Bread mold is innoculated on a nutrient plate.

[6] = system: Trichophyton mentagrophytes; assay: Inhibition of molds, size of cleared area (Example 4); assay type: cell-based; conditions: 0.1 ml of a 1% solution containing 0.1% Tween 80
Experimental: (§2) Bread mold is innoculated on a nutrient plate.
(§3) In a test similar to that of Example 2, zinc oxyacetate is tested for inhibition of four bread molds. The amount of zinc oxyacetate is 0.1 ml of a 1% solution containing 0.1% Tween 80. The amount of mold is 0.1 ml.

Trichophyton rubrum = assay: as above; assay type: cell-based; conditions: 0.1 ml of a 1% solution containing 0.1% Tween 80
Experimental: as §2, §3

Microsporum canis = assay: as above; assay type: cell-based; conditions: 0.1 ml of a 1% solution containing 0.1% Tween 80
Experimental: as §2, §3

Candida albicans = assay: as above; assay type: cell-based; conditions: 0.1 ml of a 1% solution containing 0.1% Tween 80
Experimental: as §2, §3

Staphylococcus aureus [7] = assay: Filter paper disc bacterial inhibition test on agar plates (Example 1); assay type: cell-based; conditions: for Clear Area, Average: average of plates 1-4; for Clear Area: single plate, overnight at 37° C.
Experimental: as §1, with “measured.” for “measured. Bread mold is innoculated on a nutrient plate.”

[8] = system: Herpes simplex virus type 1 (HSV-1); assay: Neutralization of viral cytopathogenic effect (CPE) on BGM cells, HSV-1 (Example 3); assay type: cell-based
Experimental: (§4) Evaluation of the compound is made using a simple neutralization of viral cytopathogenic effect (CPE) on Buffalo Green Monkey (BGM) cells using two tubes for each dilution of virus. […] In order to evaluate zinc oxyacetate, the compound (or the compound in equal weight admixture with lauryl alcohol) is incubated for 1 hour with the virus prior to making ten-fold serialdilutions and innoculating the BGM tubes. The amount of virus used is 0.1 ml. The amount of test material used is 0.1 ml of a solution containing 0.1% of Tween 80 and 0.1% of the test material.

HSV-2 [9] = assay: Neutralization of viral cytopathogenic effect (CPE) on BGM cells, HSV-2 (Example 3); assay type: cell-based, Herpes simplex virus type II
Experimental: as §4

[10] = Visible precipitate under sensitivity disc (Example 1); assay type: physicochemical; conditions: 1% and 0.50% concentration
Experimental: as §1, with “For comparison purposes, a further stock solution of zinc sulphate (1%) is made up and an identical series of tests made.” left out, “measured.” for “measured. Bread mold is innoculated on a nutrient plate.”

CC(=O)[O-].CC(=O)[O-].CC(=O)[O-].CC(=O)[O-].CC(=O)[O-].CC(=O)[O-].[Mn+2].[Mn+2].[Mn+2].[Mn+2].[O-2] [Manganese compound, Magnanese oxyacetate]
effectiveness against Echo 5 (Echo 5): not effective
plaque assay result, HSV-2 (HSV-2 [1]; HSV-2 10^-1 (Example 5), control ND): Toxic
plaque assay result, HSV-2 (HSV-2 [1]; HSV-2 10^-2 (Example 6), control 39): 4
plaque assay result, HSV-2 (HSV-2 [1]; HSV-2 10^-3 (Example 7), control 5): 0
inhibition of HSV-2 (plaque assay) (HSV-2 [1]; in words): less effective than the zinc composition; also recorded: both substances inhibited HSV-2
effectiveness against Polio 1 (Polio 1): not effective
solubility (in words) (Solubility in 2% FBS-MEM): readily soluble
titer, Adenovirus type 4 (Adenovirus type 4; in all cases): 10^-3
effectiveness in inhibiting the CPE of Adenovirus type 4 (Adenovirus type 4; in words): neither the test compound nor Zn carrier are effective
size of the BGM cells (HSV-2 [2]; 10^-1 dilution of HSV-2): increase in the size of the BGM cells
inhibition of HSV-2 (HSV-2 [2]; 10^-1 dilution of HSV-2, BGM cells): inhibit the virus completely
inhibition of HSV-2 (HSV-2 [2]; 10^-2 and 10^-3 dilution, one tube in each dilution, later typical syncytial formation): early inhibition of virus
CPE result (titer column), HSV-2 (HSV-2 [2]; BGM cells, control 10^-2.5): Inhibition
effectiveness against HSV-2 (HSV-2 [2]; in words, CPE trial): effective against HSV-2
type of action against HSV-2 (viristatic / viricidal) (HSV-2 [2]; in words, CPE trial): apparent viristatic action
plaque assay result, HSV-1 (HSV-1 [3]; HSV-1 10^-2 (Example 8), 0% methylcellulose overlay, control TNC (too numerous to count)): 90
plaque assay result, HSV-1 (HSV-1 [3]; HSV-1 10^-2 (Example 8), 1.5% methylcellulose overlay, control ND, Irr = irregular results, TNC = too numerous to count): Irr
plaque assay result, HSV-1 (HSV-1 [3]; HSV-1 10^-2 (Example 8), 2% methylcellulose overlay, control ND, Irr = irregular results, TNC = too numerous to count): Irr
plaque assay result, HSV-1 (HSV-1 [3]; HSV-1 10^-3 (Example 9), 0% methylcellulose overlay, control 34): 11
plaque assay result, HSV-1 (HSV-1 [3]; HSV-1 10^-3 (Example 9), 1.5% methylcellulose overlay, control TNC): 45
plaque assay result, HSV-1 (HSV-1 [3]; HSV-1 10^-3 (Example 9), 2% methylcellulose overlay, control 115): 46
plaque assay result, HSV-1 (HSV-1 [3]; HSV-1 10^-4 (Example 10), 0% methylcellulose overlay, control 6): 4
plaque assay result, HSV-1 (HSV-1 [3]; HSV-1 10^-4 (Example 10), 1.5% methylcellulose overlay, control 38): 5
plaque assay result, HSV-1 (HSV-1 [3]; HSV-1 10^-4 (Example 10), 2% methylcellulose overlay, control 10): 5
plaque assay result, HSV-1 (HSV-1 [3]; HSV-1 10^-5 (Example 11), 0% methylcellulose overlay, control 5): 0
plaque assay result, HSV-1 (HSV-1 [3]; HSV-1 10^-5 (Example 11), 1.5% methylcellulose overlay, control 3): 0
plaque assay result, HSV-1 (HSV-1 [3]; HSV-1 10^-5 (Example 11), 2% methylcellulose overlay, control 3): 0
effectiveness against HSV-1 (HSV-1 [4]): probably not effective against HSV-1

CC(=O)O.CC(=O)O.CC(=O)O.CC(=O)O.CC(=O)O.CC(=O)O.[O-2].[Zn+2].[Zn+2].[Zn+2].[Zn+2] [Zinc oxyacetate, zibnc, hexakis(acetato) oxotetra]
Clear Area, Average (Staphylococcus aureus [5]): 0.31 cm
Clear Area (Staphylococcus aureus [5]): 1.25 cm
growth inhibition of bread mold (Bread mold; 1% solution): good growth inhibition
growth inhibition of bread mold (Bread mold; less concentrated solution): does not noticeably inhibit growth
growth inhibition of bread mold (Bread mold; undiluted material): good growth inhibition
Size of cleared area, Trichophyton mentagrophytes [6]: 9 mm
Size of cleared area, Trichophyton rubrum (Trichophyton rubrum): 5 mm
Size of cleared area, Microsporum canis (Microsporum canis): 8 mm
Size of cleared area, Candida albicans (Candida albicans): 9 mm
Clear Area, Average (Staphylococcus aureus [7]; 1% solution): 1.82 cm
Clear Area (Staphylococcus aureus [7]; 1% solution): 1.85 cm and 1.80 cm and 1.78 cm
Clear Area, Average (Staphylococcus aureus [7]; .25% solution): 1.37 cm
Clear Area (Staphylococcus aureus [7]; .25% solution): 1.32 cm and 1.35 cm and 1.40 cm and 1.42 cm
Clear Area, Average (Staphylococcus aureus [7]; .5% solution): 1.64 cm
Clear Area (Staphylococcus aureus [7]; .5% solution): 1.70 cm and 1.52 cm and 1.61 cm and 1.72 cm
bacteriostatic qualities (Staphylococcus aureus [7]; in words, versus zinc sulphate): bacteriostatic qualities comparable to those of zinc sulphate
Titer based on 4+(100%) CPE, HSV-1 ([8]; BGM cells, 1 hour preincubation with virus, 0.1% test material, 0.1% Tween 80, control 10^-4): 10^-3
effectiveness in inhibiting the virus ([8]; in words, HSV-1, BGM cells): effective in inhibiting the virus
log inhibition, HSV-1 ([8]; titer reduction versus control): 1 log
Titer based on 4+(100%) CPE, HSV-2 (HSV-2 [9]; BGM cells, 1 hour preincubation with virus, 0.1% test material, 0.1% Tween 80, control 10^-2): 0
effectiveness in inhibiting the virus (HSV-2 [9]; in words, HSV-2, BGM cells): effective in inhibiting the virus
log inhibition, HSV-2 (HSV-2 [9]; titer reduction versus control): 2 log

O=S(=O)([O-])[O-].[Zn+2] [Zinc sulphate, zinc sulphate, reference compound]
Clear Area, Average (Staphylococcus aureus [5]): 0.61 cm
Clear Area (Staphylococcus aureus [5]): 1.22 cm and 1.21 cm
visible precipitate under each sensitivity disc [10]: a visible precipitate formed under each sensitivity disc
Clear Area, Average (Staphylococcus aureus [7]; 1% solution): 1.66 cm
Clear Area (Staphylococcus aureus [7]; 1% solution): 1.80 cm and 1.72 cm and 1.71 cm and 1.42 cm
Clear Area, Average (Staphylococcus aureus [7]; .25% solution): 1.37 cm
Clear Area (Staphylococcus aureus [7]; .25% solution): 1.40 cm and 1.39 cm and 1.31 cm
Clear Area, Average (Staphylococcus aureus [7]; .5% solution): 1.44 cm
Clear Area (Staphylococcus aureus [7]; .5% solution): 1.50 cm and 1.45 cm and 1.41 cm and 1.40 cm
